Test results as given in patent publication US8318664B2, “Unacylated ghrelin fragments as therapeutic agent in the treatment of obesity” (Alize Pharma SAS, priority 2007, dated 2012).
“Also recorded” adds a separate entry of the source. No end group written: not given here.

How the values were obtained:
human pancreatic islets [1] = experiment: Insulin secretion in human pancreatic islets; assay type: cell-based; conditions: peptide 100 nM, glucose absent or 2 to 25 mM
Description: The effects of UAG (1-14) and UAG (1-18), both used at 100 nM, were investigated on insulin secretion in human islets. […] UAG (1-28) and Exendin-4 were used as positive controls (FIGS. 8C and 8D).

[2] = test system: UAG receptor on INS-1E pancreatic β-cells; experiment: Competition with [125I-Tyr4]-UAG for binding sites on INS-1E membranes; set-up: species or system rat
Description: (§1) The ability of the fragment UAG (6-13) to compete in a concentration-dependent manner with [^125I-Tyr^4]-UAG for HIT-T15 (FIG. 10A) and INS-1E (FIG. 10B) binding sites was assayed. As shown in FIGS. 10A and 10B, unlabelled UAG (1-28) and UAG (6-13) competed with a similar efficacy and in a concentration-dependent fashion with [^125I-Tyr^4]-UAG for such binding sites in both cell lines.
(§2) Membranes from hamster HIT-T15 and rat INS-1E pancreatic β-cells were prepared and assayed for the presence of [^125I-Tyr^4]-UAG binding. The ability of UAG fragments to compete with the radioligand for such binding sites has been evaluated as previously described (Ref. 4). Data are presented as mean±S.E.M. of three independent experiments.

hamster HIT-T15 β-cells = experiment: MTT cell survival assay in HIT-T15 β-cells; assay type: cell-based; conditions: for increase of cell survival: serum-free conditions
Description: MTT experiments were also performed in hamster HIT-T15 β-cells, to test the survival effect of UAG (1-28) or its fragments UAG (1-14), UAG (1-18), UAG (1-5) and UAG (17-28) in serum deprived medium, either alone or with IFN-γ/TNF-α/IL-1β. As for the experiments performed on INS-1E β-cells, the peptides were tested at increasing concentrations, ranging from 0.1 nM to 100 nM.
The survival effect of UAG (6-13), UAG (8-13), UAG (8-12), UAG (8-11), UAG (9-12) and UAG (9-11) was assessed in cytokine-treated HIT-T15 β-cells.
The protective effects of peptides UAG (8-13) and UAG (8-12) were found similar to those of UAG (1-14) and UAG (1-18). A peptide made of the inverse sequence of UAG (1-14) and named UAG (14-1), was used as negative control for these experiments (FIG. 5A). […] These effects were however lower than those of UAG (6-13) (FIG. 5B).
UAG fragments with alanine (Ala) substitutions at different amino acid positions (6 to 13) were tested with regards to their survival effects in HIT-T15 hamster β-cells. The cells were cultured in serum deprived medium, either alone or with IFN-γ/TNF-α/IL-1β. The peptides were tested at the concentrations of 1 nM to 100 nM. […] Under treatment with cytokines, where cell survival was reduced by ≈18% with respect to serum starved conditions, all Ala substitutions, except those at positions 10 and 11, completely reversed cell death and brought the survival rate to levels that were even higher than those under serum-free conditions, at both 1 nM and 100 nM concentrations. These effects were similar to those elicited by the original peptide UAG (6-13) (FIG. 11B).
Particularly, the best effect was exerted by Gly 6-UAG (6-13), whereas the lowest was seen using AcSer 6-UAG (6-13), AcSer 6-(D)Pro 7-UAG (6-13) (FIG. 12B).
(§3) Hamster HIT-T15 insulin-secreting β-cells were obtained and cultured as described (Refs. 14, 4). INS-1E rat β-cells were kindly provided by Prof. Claes B. Wollheim (University Medical Center, Geneva, Switzerland) and cultured as described (Refs. 14, 4). Cell culture reagents were from Invitrogen (Milano, Italy). Cytokines were from Biosource (Invitrogen, Italy).
(§4) Cell survival was assessed by 3-[4,5-dimethylthiazol-2-yl]-2,5diphenyltetrazolium bromide (MTT) as described previously (Ref. 4). Cells were seeded on 96-well plates at a density of 5×10^3 cells/well. After treatments, cells were incubated with 1 mg/ml MTT for ≈1 h. The medium was aspirated, and the formazan product solubilized with 100 μl DMSO. Viability was assessed by spectrophotometry at 570 nm absorbance using a 96-well plate reader.

INS-1E rat β-cells = experiment: MTT cell survival assay in INS-1E β-cells; assay type: cell-based; conditions: 0.1 nM to 100 nM
Description: The peptides were tested at increasing concentrations, ranging from 0.1 nM to 100 nM.
as §3, §4

HIT-T15 β-cells [3] = experiment: Glucose-induced insulin secretion in HIT-T15 β-cells; assay type: cell-based, hamster; conditions: data not shown
Description: HIT-T15 cells were plated at density of 5×10^5 cells into 100-mm dishes and serum starved for 24 h before incubation for 1 h at 37° C. in HEPES-buffered Krebs-Ringer bicarbonate buffer (KRBH), containing 0.5% BSA with 1.25 mM glucose. The medium was changed and the cells were incubated again for 1 h in KRBH/0.5% BSA containing 1.25, 7.5 or 15 mM glucose. Following acid ethanol extraction of the hormone, secreted insulin was quantitated by a radioimmunoassay kit (Linco Research, Labodia, Yens, Switzerland) which recognizes human insulin and cross reacts with rat insulin.

[4] = test system: UAG receptor on HIT-T15 pancreatic β-cells; experiment: Competition with [125I-Tyr4]-UAG for binding sites on HIT-T15 membranes; set-up: species or system hamster
Description: as §1, §2

human pancreatic islets [5] = experiment: MTT cell survival assay in human pancreatic islets; assay type: cell-based; conditions: human islet cells, 1 nM to 100 nM
Description: The survival effect of UAG (1-14), UAG (1-18), UAG (1-5) and UAG (17-28), with respect to that of full length UAG (1-28), was assessed in human pancreatic islets by MTT. The peptides were tested in islet cells cultured in serum deprived medium, either alone or with IFN-γ/TNF-α/IL-1β (5 ng/ml each).
Human islets were obtained from pancreases of multiorgan donors as described (Ref. 4). Islet preparations with purity >70%, not suitable for transplantation, were provided by European Consortium for Islet Transplantation (ECIT) “Islets for Research Distribution Program,” Transplant Unit, Scientific Institute San Raffaele, Vita-Salute University, Milan. Islets (10,000) were cultured in CMRL (Invitrogen) with 10% FBS.
as §4

HIT-T15 β-cells [6] = experiment: Cytokine-induced apoptosis in HIT-T15 β-cells; assay type: cell-based, hamster
Description: HIT-T15 β-cells were cultured for 24 h in serum-free medium, either alone or with IFN-γ/TNF-α/IL-1β. In both cell lines, apoptosis increased under cytokine treatment, with respect to serum starvation alone. […] UAG (14-1), the inverse sequence of UAG (1-14), was used as negative control, whereas UAG (1-28), was used as positive control in each experiment.

[7] = test system: STZ-induced diabetic rats; experiment: Streptozotocin (STZ)-treated neonatal rats; conditions: for animal survival rate: day 9 after STZ
Description: Pregnant female Sprague-Dawley rats (n=10, day 14th-15th of pregnancy) were purchased from Harlan Srl (Italy), caged allowing free access to water and fed with a standard pellet rat diet. Natural birth occurred 6-7 days later. […] Dams were randomly assigned to the five groups and pups from the same litter were assigned to the same group. […] Pups were left with their mothers. All neonates were tested on day 2 for glycosuria using Accu-chek compact plus (Roche). Only those animals that were glycosuric at day 2 after birth were included in the STZ model group. […] Animals were killed at day 70 after birth by decapitation. Blood samples were collected after decapitation and immediately centrifuged at 20,000×g for 2 min at 4° C., and stored at −20° C. until assayed.
After excision, pancreases were removed and weighed. For insulin content determination, pancreases (35-50 mg) were homogenized and centrifuged in 5 ml acid-ethanol (0.15 mol/l HCl in 75% [vol/vol]ethanol) at 1,000 g for 20 min; the supernatants were stored at −80° C. For immunohistochemistry, additional pancreases were fixed in 4% paraformaldehyde fixative for 24 h and embedded in paraffin.
Plasma glucose levels were determined using a glucose analyzer. Insulin was measured from pancreases or from plasma by RIA as previously described (Ref. 15).

ob/ob mice = experiment: ob/ob mice, 4 weeks infusion by Alzet pump; assay type: in vivo, mouse
Description: Baseline tail vein plasma samples were collected from free-fed and 16 h fasted ob/ob mice 7 and 6 days before pump implantation into K2EDTA coated capillary tubes (Microvette CB300 K2E; Sarstedt, Germany). The animals were then separated into three groups with approximately equivalent weight ranges. Ten week old mice were anesthetized, and a filled Alzet 1004 pump was inserted, delivery portal first, into the peritoneal cavity. The musculoperitoneal and skin layers were then closed using interrupted sutures (Vicryl 5.0 FS-2 absorbable suture). Animals received pumps containing either saline, 10 mg/ml UAG, or 3.5 mg/mL UAG (6-13) (n=8 per group). Alzet 1004 pumps deliver […], and infused 30 μg of hUAG/animal/day (˜600 μg/kg/day) and 10 μg of UAG (6-13)/animal/day (˜200 μg/kg/day).
Blood samples (at 0900-1000) were obtained from fed and fasted animals at weeks 2 and 4 via the tail vein into EDTA Microvette tubes. Glucose levels in tail vein blood were measured directly using a glucometer. On the last day of treatment baseline (fasted) blood samples were taken.
For the experimental data illustrated in FIGS. 14A, 14B, 15 and 16, the animals were obtained from Charles River Laboratories (Maastricht, The Netherlands). Animals (B6.V-Lep^ob/J, Charles River Laboratories, Belgian colony) were received in our animal facilities at 8 weeks of age, and acclimatized in individual cages for 2 weeks before treatments began. They were maintained under standard 12:12 h light:dark conditions, 21° C., and were allowed free access to food and water. The animals were also handled daily to accustom them to the method used for blood collection. The peptides were dissolved in sterile, nonpyrogenic, 0.9% saline (Baxter BV, Utrecht, The Netherlands). D-glucose was obtained from Sigma-Aldrich Chemie BV (Zwijndrecht, The Netherlands), and was dissolved at 400 mg/ml in 0.9% saline. Alzet pumps (model 1004) were obtained from Charles River Laboratories (Maastricht, The Netherlands). Pumps were filled with 0.9% saline, UAG or UAG (6-13) solution under sterile conditions, and pre-incubated in 0.9% saline for at least 48 hours at 37° C. to initiate flow. Blood glucose levels were measured directly from tail vein incisions using a Freestyle mini glucometer and test strips (ART05214 Rev.A; Abbot, Amersfoort, The Netherlands). Plasma insulin levels were assayed by Ultra-sensitive mouse insulin ELISA (Cat. #10-1150-10; Mercodia, Sweden).

[8] = serum deprived medium with IFN-γ/TNF-α/IL-1β

GSSFLSPEHQRVQQ [UAG (1-14)]
insulin secretion (human pancreatic islets [1]): significantly increased insulin secretion both in the absence and presence of glucose | binding to the UAG receptor [2]: recognized and bound | cell survival (MTT) (hamster HIT-T15 β-cells; serum deprived medium alone): significantly increased cell viability; also recorded: potently increased cell survival | cell survival (MTT) (hamster HIT-T15 β-cells; [8]): significantly increased cell viability; also recorded: potently increased cell survival | cell survival (MTT) (INS-1E rat β-cells; serum deprived medium alone): potently increased cell survival | cell survival (MTT) (INS-1E rat β-cells; [8]): potently increased cell survival | glucose-induced insulin secretion (HIT-T15 β-cells [3]): significantly increased glucose-induced insulin secretion | binding to the UAG receptor [4]: recognized and bound | cell survival (MTT) (human pancreatic islets [5]; serum deprived medium with IFN-γ/TNF-α/IL-1β (5 ng/ml each)): prevented cell death at 100 nM

GSSFLSPEHQRVQQRKES [UAG (1-18)]
insulin secretion (human pancreatic islets [1]): significant effect with 7.5 mM glucose | cell survival (MTT) (hamster HIT-T15 β-cells; serum deprived medium alone): significantly increased cell viability; also recorded: potently increased cell survival | cell survival (MTT) (hamster HIT-T15 β-cells; [8]): significantly increased cell viability; also recorded: potently increased cell survival | cell survival (MTT) (INS-1E rat β-cells; serum deprived medium alone): potently increased cell survival | cell survival (MTT) (INS-1E rat β-cells; [8]): potently increased cell survival | cell survival (MTT) (human pancreatic islets [5]; serum deprived medium alone): significantly increased cell survival at 1 nM and 10 nM

SPEHQRVQ [UAG (6-13), Ser-Pro-Glu-His-Gln-Arg-Val-Gln]
antiapoptotic effect (cytokine-induced apoptosis) (HIT-T15 β-cells [6]; 24 h serum-free medium with IFN-γ/TNF-α/IL-1β, 1, 10, 100 nM): significantly reduced cytokine-induced apoptosis; also recorded: strongest antiapoptotic effect | cell number and morphology with respect to cytokine condition (HIT-T15 β-cells [6]; cytokine-treated, data not shown): increased the number of cells, induced cell enlargement and small islets formation | animal survival rate ([7]; 30 nmol/l (STZ alone ≈52%)): ≈ 71% | animal survival rate ([7]; 100 nmol/l (STZ alone ≈52%)): 89% | reduction of plasma glucose vs. STZ group ([7]; day 70, 30 nmol/l): 31% | reduction of plasma glucose vs. STZ group ([7]; day 70, 100 nmol/l): 14% | plasma insulin levels ([7]; day 70, STZ-treated rats, UAG (6-13) at both concentrations): increasing insulin levels | binding to the UAG receptor [2]: highest binding activity | cell survival (MTT) (hamster HIT-T15 β-cells; [8]): potently inhibited cytokine-induced cell death; also recorded: strongly effective in increasing survival | increase of cell survival (hamster HIT-T15 β-cells; 1 nM): ≈ 18% | increase of cell survival (hamster HIT-T15 β-cells; 100 nM): ≈ 30% | gonadal fat weight over the period of treatment (ob/ob mice; mouse, in vivo): did not cause an increase in gonadal fat weight | decrease of gonadal fat pad weight relative to saline treated controls (ob/ob mice; period of treatment (4 weeks), trend p<0.06): approximately 7% | suppression of fasting glucose concentrations from saline treated controls (ob/ob mice; week 4): This effect remained at week 4 | fed plasma glucose levels relative to saline controls (ob/ob mice; weeks 2 and 4, no statistically significant effects (RM-ANOVA)): consistent suppressive effect | binding to the UAG receptor [4]: highest binding activity

exendin-4 [reference compound]
insulin secretion (human pancreatic islets [1]): significantly increased insulin secretion both in the absence and presence of glucose
